Assay results reported in ChEMBL document CHEMBL3217457, “Carbazolepyrrolo[2,1-c][1,4]benzodiazepine conjugates: design, synthesis, and biological evaluation” (Medchemcomm, 2011).
Active and inactive are the calls of the source. The rule behind the calls is not given here.

Experiments:
MCF7 [1] = assay: Growth inhibition of human MCF7 cells; assay type: functional
[2] = Toxicity in iv dosed NOD-SCID mouse xenografted with human PC3 cells assessed as maximum tolerated dose administered q4d on days 1, 5 and 9; assay type: organism-based, PC-3; conditions: in vivo
MCF7 [3] = assay: Downregulation of CDK4 protein expression in human MCF7 cells at 4 uM after 24 hrs by Western blot analysis; assay type: functional, cell-based
MCF7 [4] = assay: Downregulation of CREB protein expression in human MCF7 cells at 4 uM after 24 hrs by Western blot analysis; assay type: functional, cell-based
PC-3 [5] = assay: Anticancer activity against human PC3 cells xenografted in NOD-SCID mouse assessed as decrease in tumor volume at 20 mg/kg, iv q4d on days 1, 5 and 9; assay type: functional, organism-based; design: dose 20 mg/kg
MCF7 [6] = assay: Upregulation of Bax protein expression in human MCF7 cells at 4 uM after 24 hrs by Western blot analysis; assay type: functional, cell-based
SiHa = assay: Growth inhibition of human SiHa cells; assay type: functional
MCF7 [7] = assay: Upregulation of JNK1/2 protein expression in human MCF7 cells at 4 uM after 24 hrs by Western blot analysis; assay type: functional, cell-based
MCF7 [8] = assay: Cytotoxicity against human MCF7 cells assessed as decrease in cell viability at 4 uM after 24 hrs by MTT assay; assay type: functional, cell-based
MCF7 [9] = assay: Cytotoxicity against human MCF7 cells by ATP-dependent cell viability assay; assay type: functional, cell-based
MCF7 [10] = assay: Cell cycle arrest in human MCF7 cells assessed as accumulation at S phase at 4 uM after 24 hrs by propidium iodide staining based flow cytometry (reference value: 14.30%); assay type: functional
MCF7 [11] = assay: Upregulation of PARP protein expression in human MCF7 cells at 4 uM after 24 hrs by Western blot analysis; assay type: functional, cell-based
Calf thymus DNA = assay: Binding affinity to calf thymus DNA assessed as change in melting temperature at compound to DNA ratio of 1:5 after 18 hrs by thermal denaturation analysis; assay type: nucleic-acid assay; conditions: Bos taurus
MCF7 [12] = assay: Cell cycle arrest in human MCF7 cells assessed as accumulation at G0 phase at 4 uM after 24 hrs by propidium iodide staining based flow cytometry (reference value: 2.77%); assay type: functional
PC-3 [13] = assay: Growth inhibition of human PC3 cells; assay type: functional
MCF7 [14] = assay: Downregulation of c-Jun protein expression in human MCF7 cells at 4 uM after 24 hrs by Western blot analysis; assay type: functional, cell-based
MCF7 [15] = assay: Induction of apoptosis in human MCF7 cells assessed as procaspase-7 cleavage at 4 uM after 24 hrs by Western blot analysis; assay type: functional, cell-based
MCF7 [16] = assay: Upregulation of p53 protein expression in human MCF7 cells at 4 uM after 24 hrs by Western blot analysis; assay type: functional, cell-based
MCF7 [17] = assay: Cell cycle arrest in human MCF7 cells assessed as accumulation at G2/M phase at 4 uM after 24 hrs by propidium iodide staining based flow cytometry (reference value: 24.95%); assay type: functional
MCF7 [18] = assay: Cytotoxicity against human MCF7 cells assessed as decrease in cell viability at 2 to 16 uM after 6 to 48 hrs by MTT assay; assay type: functional, cell-based
MCF7 [19] = assay: Cell cycle arrest in human MCF7 cells assessed as accumulation at G0/G1 phase at 4 uM after 24 hrs by propidium iodide staining based flow cytometry (reference value: 60.75%); assay type: functional
Mus musculus [20] = assay: Toxicity in NOD-SCID mouse xenografted with human PC3 cells assessed as weight loss at 20 mg/kg, iv q4d on days 1, 5 and 9; assay type: organism-based, PC-3; design: dose 20 mg/kg, route intravenous; conditions: in vivo
MCF7 [21] = assay: Induction of apoptosis in human MCF7 cells assessed as Apoalert DNA fragmentation at 4 uM after 24 hrs by TUNEL assay; assay type: functional, cell-based
PC-3 [22] = assay: Anticancer activity against human PC3 cells xenografted in NOD-SCID mouse assessed as decrease in tumor weight at 20 mg/kg, iv q4d on days 1, 5 and 9; assay type: functional, organism-based; design: dose 20 mg/kg
COLO 205 = assay: Growth inhibition of human COLO205 cells; assay type: functional
ZR-75-1 = assay: Growth inhibition of human ZR-75-1 cells; assay type: functional
MCF7 [23] = assay: Cell cycle arrest in human MCF7 cells assessed as accumulation at G1 phase at 4 uM after 24 hrs by propidium iodide staining based flow cytometry (reference value: 57.98%); assay type: functional
MCF7 [24] = assay: Induction of apoptosis in human MCF7 cells assessed as pRb protein expression at 4 uM after 24 hrs by Western blot analysis; assay type: functional, cell-based
[25] = Growth inhibition of human Gurav cells; assay type: functional
MCF7 [26] = assay: Downregulation of cyclin D1 protein expression in human MCF7 cells at 2 to 4 uM after 24 hrs by Western blot analysis; assay type: functional, cell-based
A549 = assay: Growth inhibition of human A549 cells; assay type: functional
KB = assay: Growth inhibition of human KB cells; assay type: functional
MCF7 [27] = assay: Antiproliferative activity against human MCF7 cells assessed as cell proliferation at 4 uM after 24 hrs by BrdU incorporation assay (reference value: 100%); assay type: functional; conditions: MCF7, 24 h, read-out: Activity
MCF7 [28] = assay: Downregulation of Jun B protein expression in human MCF7 cells at 4 uM after 24 hrs by Western blot analysis; assay type: functional, cell-based
Mus musculus [29] = assay: Toxicity in NOD-SCID mouse xenografted with human PC3 cells assessed as mortality at 20 mg/kg, iv q4d on days 1, 5 and 9; assay type: organism-based, PC-3; design: dose 20 mg/kg, route intravenous; conditions: in vivo
A2780 = assay: Growth inhibition of human A2780 cells; assay type: functional
HOP-62 = assay: Growth inhibition of human HOP62 cells; assay type: functional

COc1ccc(-c2ccc3c(c2)c2cc(-c4ccc(OC)cc4)ccc2n3CCCCN2CCN(CCCCOc3cc4c(cc3OC)C(=O)N3CCC[C@H]3C=N4)CC2)cc1
GI50 (MCF7 [1]): 10 nM
MTD [2]: < 50 mg/kg
inhibition (MCF7 [3]): Active
inhibition (MCF7 [4]): Active
inhibition (PC-3 [5]): Active
Activity (MCF7 [6]): Active
GI50 (SiHa): 110 nM
Activity (MCF7 [7]): Active
inhibition (MCF7 [8]): Active
inhibition (MCF7 [9]): Active
Activity (MCF7 [10]): 5.44%
Activity (MCF7 [11]): Active
ΔTm (Calf thymus DNA): 10.2 °C
Activity (MCF7 [12]): 25.31%
GI50 (PC-3 [13]): 10 nM
inhibition (MCF7 [14]): Active
Activity (MCF7 [15]): Active
Activity (MCF7 [16]): Active
Activity (MCF7 [17]): 6.2%
inhibition (MCF7 [18]): Active
Activity (MCF7 [19]): 88.34%
Activity (Mus musculus [20]): Non-toxic
Activity (MCF7 [21]): Active
inhibition (PC-3 [22]): Active
GI50 (COLO 205): 70 nM
GI50 (ZR-75-1): 120 nM
Activity (MCF7 [23]): 63.03%
Activity (MCF7 [24]): Active
GI50 [25]: 110 nM
inhibition (MCF7 [26]): Active
GI50 (A549): 90 nM
GI50 (KB): 100 nM
growth at 4 µM (MCF7 [27]): 28%
inhibition (MCF7 [28]): Active
Activity (Mus musculus [29]): Non-toxic
GI50 (A2780): 10 nM
GI50 (HOP-62): 10 nM
